Consider six compounds from US11248995B2, “Hydrogel encapsulation of living organisms for long-term microscopy” (priority 2017, dated 2022).

One data set relates to AWA activity. As to the kind of experiment: Nemadipine-A treatment of multi-well plate embedded animals, optogenetically-evoked calcium responses. Format: in vivo, C. elegans. The conditions noted are these: 10, 50, 100 uM vs 1% DMSO control, stimulated every 10 min for 24 hours; dose dependence. As for the experimental part: A small volume (10 uL) of PEG hydrogel solution (10% with 0.5×S. basal) with photoinitiator was pipetted into each PCR tube (one tube per one well). Young adult animals (CX16573) were transferred into the hydrogel solution by worm pick (up to 40 or more). The hydrogel and worm solution was transferred from one PCR tube to the bottom of one well of a 384 well plate, and repeated for as many PCR tubes prepared. The 384 well plate was placed into −20° C. freezer for no more than 10 min, then immediately placed on the 308 nm light source to crosslinking for no more than 45 s. Then, a small volume (60 uL) of 1 mM ATR in water was pipetted into crosslinked wells, covered, placed in the dark, and allowed to incubate for at least 1 hr, or up to 24 hrs. Animals were then imaged on a custom designed microscope and optical configuration allowing for both red-light excitation and blue-light excitation sent through the objective, all set by the initial experimental settings. Red light pulse durations, well position, cycle number and cycle delay conditions were set by a custom MicroManager script, and executed.
After crosslinking and before all-trans retinal (ATR) transfer to each well, solutions of 10 μM, 50 μM, and 100 μM nemadipine-A to a final concentration of 1% DMSO in 1 mM ATR were prepared. A control well containing only 1% DMSO in 1 mM ATR was prepared as well. […]

Another data set has as its system AWA sensory neuron pair. Description: Microfluidic chemical pulse stimulation of hydrogel-embedded C. elegans, GCaMP light sheet imaging. Format: in vivo. Particulars: 5-s and 10-s pulses. From the text:
Wild-type C. elegans expressing GCaMP in the AWA sensory neuron pair were encapsulated in a hydrogel disk above a 100 μm wide microfluidic channel. External tubing connections and valves delivered 1, 5, or 10 second long pulses of chemical flow beneath the hydrogel disk. Small molecule chemicals (MW<500 Da) diffuse rapidly through the hydrogel, typically in under 1 second, to reach the encapsulated organism(s).

For data set [1], the system named is C. elegans. Description: Quantification of movement of hydrogel-embedded animals. Format: in vivo. As for the experimental part:
Young adult QW1217 worms with pan-neuronal expression of nuclear-localized mCherry were embedded in 10% and 20% PEG hydrogels (3 μL with 100 μm spacer, 0.1% I2959, 20 s exposure using a 312 nm UV source). Worms received either no pretreatment, exposure to hypoosmotic (diH2O, 0 mOsm) or hyperosmotic buffers (0.5 M glycerol in diH2O, 500 mOsm or 1.5×S-Basal, 420 mOsm) for 10 min, or cooling in a −20° C. freezer or in contact with ice for 1-3 min prior to crosslinking. PEG hydrogel solutions were prepared in diH2O or S-Basal buffer, and some contained the paralytic reagents 25 mM sodium azide (Massie et al., 2003) or 1 mM tetramisole hydrochloride (Sigma) (Larsch et al., 2013). Other hydrogel solutions were prepared in 500 mM glycerol or 1.5×S-Basal hyperosmotic buffers. After crosslinking, all hydrogels were submerged in an aqueous solution of either S-Basal, diH20, sodium azide (25 mM) or tetramisole (1 mM) for imaging. Videos were captured with a Hamamatsu Orca-Flash 4.0 camera at 1 frame/sec for 3 min on a Zeiss AxioObserver inverted epifluorescence microscope with a 20×/0.5 NA objective.
Animal movement was analysed by comparing frame-to-frame image differences. Movement index is described using the equation M.I.=ΔIROI/IROI−IBG, where ΔIROI represents the difference in pixel intensity between consecutive frames, averaged across a region of interest (ROI), IROI represents the average intensity of the ROI, and IBG represents the average intensity of a Background region. […] First, the absolute value differences between each pair of consecutive frame averaged pixel intensities were calculated. Next, the difference image stack was smoothed (average of its 3×3 neighborhood). To reduce the contribution of pixel noise, a value of 10 (corresponding to average pixel noise) was subtracted uniformly from each frame and negative values were set to 0. Regions of Interest (ROIs) were selected over the head (nerve ring) and ventral cord and a background region (BG). The movement index was calculated as […], where ΔIROI is the mean of difference images across the ROI, and ΔIROI and IBG, are the mean intensity of the ROI and background regions for the first frame, respectively. Here, identical sequential frames would have a M.I. of zero, whereas images that have changes in position, rotation, focus, or intensity have increasing M.I. values.
Movement in the image plane was quantified by tracking cell nucleus position over 3 minutes. Individual neurons were tracked using NeuroTracker (Larsch et al., 2013) and centroid positions were used to determine the range of axial movement by the animal.

Data set [2] deals with C. elegans. Particulars: 25 mM sodium azide, agarose pad.
Protocol: For hydrogel encapsulation, 5 μL of a 10% PEG hydrogel with 0.1% I2959 containing late L1/L2 stage animals was placed on a fluorinated glass slide with 50 μm thick tape spacers, polymerized with 312 nm UV light, and imaged on an upright Zeiss Axioskop microscope with a 100×/1.4 NA objective using DIC optics. Images were captured every hour for 12 hours without movement of the sample. For comparison, animals were mounted onto conventional agarose pads with chemical or physical restraint. […] Animals were picked into this droplet and a cover slip was placed on top before imaging. Alternatively, a 0.25-0.5 μL drop of polystyrene nanobeads (100 nm, Polysciences, Inc.) was placed on a 10% agarose pad prior to adding animals, a cover slip, and imaging.
Data set [3] concerns AWA chemosensory neuron calcium responses. As to the kind of experiment: Automated small-molecule screening of optogenetically-evoked calcium activity suppressors (LOPAC library). The format is in vivo, C. elegans. The conditions noted are these: 10 μM, 1% DMSO, about 18 hours exposure; beyond mean ± 3 standard deviations.
Protocol: For all well plate experiments, equal parts of 20% PEGDA (0.1% Irgacure) was added to a synchronized animal population in M9, resulting in ˜5 an/μL, 10% PEGDA, 0.05% Irgacure, and 0.5×M9. […] Both procedures used repeated mixing (4-5×) to maintain an even animal suspension during transfer. The animal-containing multiwell plate was transiently cooled for 10 min at −20° C. to settle animals at the bottom of the well, then immediately exposed to 308 nm UV light to photo-crosslink and embed the animals. Single wells can also be prepared by standard picking and transfer of animals to a final 10% gel solution (using PCR tubes), depending on experimental design or desired throughput.
Aliquoted LOPAC drug library plates were received from the UMMS small-molecule screening facility as 16 individual 96-well plates containing 3 nmol of compound per well (3 μL of 1 mM in 100% DMSO), stored at −80° C. until use. […]
A suite of custom ImageJ macros was developed for automated neuron selection and trace recording (aNT), or to manually select neurons (neuronPos) and then record calcium intensity in each well across all wells and cycles automatically (NT). […] Local background subtracted fluorescence (F) was calculated as F=(FR−Fbg).
[4] abbreviates: hyper-osmotic solution (0.5 M glycerol 500 mOsm or 1.5x S-Basal 420 mOsm) 10 min prior to or during crosslinking, imaged in S-Basal buffer.

Structures can show the parent of a compound that is named as a salt.

Consider `CCOC(=O)C1=C(C)NC(C)=C(C(=O)OCC)C1c1c(F)c(F)c(F)c(F)c1F` [Nemadipine-A], for which the “Peak calcium response (change in fluorescence) of AWA” value in the data set on AWA activity is on record as “reduction in peak response”.
For the compound `CC(=O)C(C)=O` [diacetyl], in the data set with AWA sensory neuron pair, the “AWA neuron response (relative integrated fluorescence) to odor stimulation” value is listed as “stimulated one of the two neurons”.
As to `OCC(O)CO` [glycerol], in the data set with C. elegans [1] (setting [4]), the “Movement index (M.I.)” value was 0.02±0.007 and the “Range of movement over 3 min” value turned out to be 8±7 μm.
`[N-]=[N+]=[N-]` [sodium azide]: the “Cell death in paralyzed animals” value in the data set with C. elegans [2] was “characteristics of necrotic cell death after 6 hours”. For the same compound, the “Reduction of movement index” value in the data set on C. elegans [1] (20% PEG hydrogels, paralytic vs no paralytic, P<0.0001) turned out to be 5 fold. Besides, the “Movement index (M.I.)” value with C. elegans [1] (C. elegans embedded in 20% PEG hydrogels, mean over 3 min, 25 mM sodium azide or 1 mM tetramisole during gelation or transiently after encapsulation, hydrogel alone without paralytic) came out at 0.07±0.01. Moreover, the “Movement (displacement range) over 3 minutes” value in the data set with C. elegans [1] (C. elegans embedded in 20% PEG hydrogels, 25 mM sodium azide or 1 mM tetramisole, hydrogel alone without paralytic) turned out to be 18 μm.
Take `c1ccc(C2CN3CCSC3=N2)cc1` (stereo not drawn) [tetramisole, tetramisole hydrochloride]: in the data set on C. elegans [1] (in vivo), the “Movement (displacement range) over 3 minutes” value is given as 19 μm, the “Movement index (M.I.)” value is reported as 0.06±0.02 and the “Reduction of movement index” value is listed as 5 fold.
As to ivermectin, the “Screen result: relative peak ΔF/F0 calcium response, fold change cycle 4 to 1” value in data set [3] was “positive hits”.
